Series [1] concerns the target T1, Type-2 angiotensin II receptor (Homo sapiens, UniProt P50052).
T1 sequence (P50052 whole entry): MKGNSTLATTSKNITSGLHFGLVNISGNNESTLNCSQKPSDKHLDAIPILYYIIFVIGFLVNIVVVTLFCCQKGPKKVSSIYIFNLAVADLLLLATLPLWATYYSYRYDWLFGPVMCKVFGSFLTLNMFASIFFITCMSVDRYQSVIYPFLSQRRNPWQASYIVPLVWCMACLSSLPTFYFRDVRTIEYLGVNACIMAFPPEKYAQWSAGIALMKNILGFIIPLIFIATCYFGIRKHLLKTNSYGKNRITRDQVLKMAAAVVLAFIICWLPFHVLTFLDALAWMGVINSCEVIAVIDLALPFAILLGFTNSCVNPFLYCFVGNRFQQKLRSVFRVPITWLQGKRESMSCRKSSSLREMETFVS
Description: biochemical. To be noted: cho-k1. Type of series: cell-based, CHO-K1.

Series [2] has as its target Insulin receptor (Rattus norvegicus, UniProt P15127). It is filed as cell membranes, Wistar, Liver, Membrane.
Series [3] concerns the target T2, Vasoactive intestinal polypeptide receptor 1 (Homo sapiens, UniProt P32241).
T2 sequence (P32241 whole entry): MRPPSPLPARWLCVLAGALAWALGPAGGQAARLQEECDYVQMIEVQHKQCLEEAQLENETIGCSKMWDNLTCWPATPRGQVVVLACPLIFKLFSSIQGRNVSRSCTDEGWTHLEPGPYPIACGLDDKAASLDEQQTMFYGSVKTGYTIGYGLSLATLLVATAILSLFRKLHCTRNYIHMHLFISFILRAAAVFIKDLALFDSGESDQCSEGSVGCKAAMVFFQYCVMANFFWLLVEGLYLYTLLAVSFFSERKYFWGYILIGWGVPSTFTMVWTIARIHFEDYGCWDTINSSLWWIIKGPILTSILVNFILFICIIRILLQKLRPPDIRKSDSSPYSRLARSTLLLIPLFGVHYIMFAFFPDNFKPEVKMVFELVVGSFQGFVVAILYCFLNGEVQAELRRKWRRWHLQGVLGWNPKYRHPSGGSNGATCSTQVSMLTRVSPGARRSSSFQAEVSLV
Type of series: cell membranes, Membrane. Conditions: ht-29.

For series [4], the target named is 5-hydroxytryptamine receptor 2B (Homo sapiens, UniProt P41595). Type of series: cell membranes, CHO-K1, Membrane. To be noted: cho-k1.
Chain of 5-hydroxytryptamine receptor 2B (P41595 whole entry): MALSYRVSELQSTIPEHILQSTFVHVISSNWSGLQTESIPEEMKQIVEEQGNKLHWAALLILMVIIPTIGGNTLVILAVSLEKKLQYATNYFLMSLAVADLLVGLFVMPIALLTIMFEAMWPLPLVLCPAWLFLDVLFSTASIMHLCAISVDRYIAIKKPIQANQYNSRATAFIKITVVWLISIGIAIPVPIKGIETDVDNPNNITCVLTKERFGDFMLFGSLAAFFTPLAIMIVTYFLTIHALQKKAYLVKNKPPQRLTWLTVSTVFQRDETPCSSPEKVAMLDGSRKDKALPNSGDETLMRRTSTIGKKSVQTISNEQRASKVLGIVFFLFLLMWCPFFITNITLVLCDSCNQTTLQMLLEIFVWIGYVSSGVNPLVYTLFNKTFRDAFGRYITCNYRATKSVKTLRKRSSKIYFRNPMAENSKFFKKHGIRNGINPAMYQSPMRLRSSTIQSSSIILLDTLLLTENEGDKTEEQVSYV
In series [5] the target is T3, Muscarinic acetylcholine receptor M5 (Homo sapiens, UniProt P08912).
T3 sequence (P08912 whole entry): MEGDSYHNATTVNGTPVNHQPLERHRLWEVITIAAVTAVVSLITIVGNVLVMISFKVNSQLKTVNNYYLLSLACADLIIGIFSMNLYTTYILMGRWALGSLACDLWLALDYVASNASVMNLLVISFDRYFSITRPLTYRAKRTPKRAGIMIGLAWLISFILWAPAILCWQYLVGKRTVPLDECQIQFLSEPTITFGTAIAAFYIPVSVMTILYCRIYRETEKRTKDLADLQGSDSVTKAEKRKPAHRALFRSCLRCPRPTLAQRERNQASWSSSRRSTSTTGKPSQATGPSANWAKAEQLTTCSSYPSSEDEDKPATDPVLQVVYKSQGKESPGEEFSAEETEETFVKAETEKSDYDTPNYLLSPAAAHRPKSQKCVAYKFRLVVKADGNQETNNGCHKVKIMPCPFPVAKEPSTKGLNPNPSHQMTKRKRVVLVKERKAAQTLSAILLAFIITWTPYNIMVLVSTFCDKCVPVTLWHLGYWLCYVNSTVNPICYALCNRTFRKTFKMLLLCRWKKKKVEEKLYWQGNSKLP
It is filed as cell membranes, CHO-K1, Membrane. To be noted: cho-k1.

Series [6] has as its target Voltage-gated inwardly rectifying potassium channel KCNH2 (Homo sapiens, UniProt Q12809). To be noted: hek293.
Note: in other assays of this panel Not Active means under 50% inhibition at 10 µM.

Chain of Voltage-gated inwardly rectifying potassium channel KCNH2 (Q12809 whole entry): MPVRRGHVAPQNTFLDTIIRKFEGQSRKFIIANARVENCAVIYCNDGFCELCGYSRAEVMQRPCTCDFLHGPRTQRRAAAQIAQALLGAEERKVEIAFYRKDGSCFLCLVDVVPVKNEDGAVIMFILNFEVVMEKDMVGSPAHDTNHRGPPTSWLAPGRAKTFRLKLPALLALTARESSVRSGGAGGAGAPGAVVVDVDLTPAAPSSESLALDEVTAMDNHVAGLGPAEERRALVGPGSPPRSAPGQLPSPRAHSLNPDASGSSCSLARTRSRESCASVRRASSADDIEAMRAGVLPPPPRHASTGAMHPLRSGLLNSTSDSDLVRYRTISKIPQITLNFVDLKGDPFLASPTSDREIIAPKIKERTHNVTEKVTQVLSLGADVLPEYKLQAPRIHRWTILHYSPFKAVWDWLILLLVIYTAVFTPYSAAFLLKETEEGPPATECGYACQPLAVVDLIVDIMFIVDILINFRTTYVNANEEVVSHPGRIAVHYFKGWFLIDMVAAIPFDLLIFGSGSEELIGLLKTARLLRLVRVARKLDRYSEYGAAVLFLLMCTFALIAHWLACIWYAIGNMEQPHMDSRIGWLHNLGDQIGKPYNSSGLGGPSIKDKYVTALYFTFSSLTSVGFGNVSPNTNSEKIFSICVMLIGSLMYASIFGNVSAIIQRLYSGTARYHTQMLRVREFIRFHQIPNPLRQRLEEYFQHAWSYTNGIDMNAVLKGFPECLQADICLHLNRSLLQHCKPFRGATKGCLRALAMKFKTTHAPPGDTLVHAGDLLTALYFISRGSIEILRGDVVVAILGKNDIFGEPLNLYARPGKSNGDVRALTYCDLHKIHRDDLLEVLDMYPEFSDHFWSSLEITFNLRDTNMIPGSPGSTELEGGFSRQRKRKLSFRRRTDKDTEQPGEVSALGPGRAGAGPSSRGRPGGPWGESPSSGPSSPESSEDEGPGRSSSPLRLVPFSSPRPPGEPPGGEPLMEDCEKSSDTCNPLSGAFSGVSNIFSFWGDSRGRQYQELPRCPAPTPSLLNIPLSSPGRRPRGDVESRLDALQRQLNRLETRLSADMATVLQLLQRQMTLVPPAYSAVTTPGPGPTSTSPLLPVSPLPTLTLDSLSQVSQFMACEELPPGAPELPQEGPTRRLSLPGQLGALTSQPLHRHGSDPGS
Chain of Insulin receptor (P15127 27-759 limits assumed): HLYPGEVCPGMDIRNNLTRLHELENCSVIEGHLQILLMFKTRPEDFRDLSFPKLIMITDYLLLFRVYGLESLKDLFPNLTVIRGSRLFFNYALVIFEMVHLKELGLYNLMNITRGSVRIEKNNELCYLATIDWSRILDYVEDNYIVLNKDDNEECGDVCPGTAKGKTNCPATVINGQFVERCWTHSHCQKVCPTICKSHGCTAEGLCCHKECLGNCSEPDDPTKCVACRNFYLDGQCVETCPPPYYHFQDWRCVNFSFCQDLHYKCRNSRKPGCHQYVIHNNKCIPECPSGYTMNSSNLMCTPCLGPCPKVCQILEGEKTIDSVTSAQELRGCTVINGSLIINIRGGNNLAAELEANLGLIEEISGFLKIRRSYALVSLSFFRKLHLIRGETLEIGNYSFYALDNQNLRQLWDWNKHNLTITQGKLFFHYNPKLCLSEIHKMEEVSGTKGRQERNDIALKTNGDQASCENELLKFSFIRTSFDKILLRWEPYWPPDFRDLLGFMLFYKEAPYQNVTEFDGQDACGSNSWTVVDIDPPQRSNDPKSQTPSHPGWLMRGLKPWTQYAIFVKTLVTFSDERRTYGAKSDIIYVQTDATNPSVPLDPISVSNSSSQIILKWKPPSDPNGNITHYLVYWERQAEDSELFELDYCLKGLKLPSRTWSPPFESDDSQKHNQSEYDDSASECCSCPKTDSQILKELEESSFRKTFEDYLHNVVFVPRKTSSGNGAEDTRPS
Chain of Insulin receptor (P15127 764-1383 limits assumed): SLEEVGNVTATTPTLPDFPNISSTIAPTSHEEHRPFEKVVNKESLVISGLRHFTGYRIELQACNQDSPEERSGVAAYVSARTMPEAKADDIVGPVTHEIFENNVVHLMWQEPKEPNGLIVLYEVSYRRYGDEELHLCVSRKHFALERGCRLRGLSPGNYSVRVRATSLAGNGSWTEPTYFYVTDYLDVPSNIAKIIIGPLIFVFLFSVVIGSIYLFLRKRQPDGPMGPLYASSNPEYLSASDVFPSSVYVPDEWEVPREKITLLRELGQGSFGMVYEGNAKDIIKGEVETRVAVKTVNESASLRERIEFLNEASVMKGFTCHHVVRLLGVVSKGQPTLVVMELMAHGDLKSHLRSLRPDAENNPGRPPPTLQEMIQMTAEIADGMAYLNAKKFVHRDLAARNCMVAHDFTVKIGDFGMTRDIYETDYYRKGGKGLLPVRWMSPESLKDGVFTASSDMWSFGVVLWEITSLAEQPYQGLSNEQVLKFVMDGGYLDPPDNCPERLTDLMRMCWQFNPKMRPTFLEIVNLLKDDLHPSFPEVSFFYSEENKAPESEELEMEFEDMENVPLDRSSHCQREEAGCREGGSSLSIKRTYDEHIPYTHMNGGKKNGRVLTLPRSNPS

Broadly, the IC50 is the concentration that inhibits the measured activity by half. Usually Ki stands for a measure of affinity in units of concentration, obtained from inhibition or displacement. `CC(=N)S` [THIOACETAMIDE]: the IC50 entry in series [1], in series [2], in series [3], in series [4], in series [5] and in series [6] was “Not Active” in each case. In addition, the Ki entry in series [6] is reported as “Not Active”.
Take `Cc1ccc(C(=O)c2ccc(CC(=O)O)n2C)cc1` [TOLMETIN]: the IC50 result in series [1], in series [2], in series [3], in series [4], in series [5] and in series [6] was “Not Active” in each case. Further, the inhibitory constant (Ki) result in series [6] is given as “Not Active”.
Take `CC(=O)OCC(COC(C)=O)OC(C)=O` [TRIACETIN]: the IC50 entry in series [1], in series [2], in series [3], in series [4], in series [5] and in series [6] was “Not Active” throughout. Further, the Ki result in series [6] is “Not Active”.
Regarding TRANSPLATIN, the 50% inhibitory concentration (IC50) result in series [1] was “Not Active”; in series [2] it was “Not Active”; in series [3] it was “Not Active”; in series [4], “Not Active”; in series [5] (read-out: IC50), 5.93 µM; in series [6], “Not Active”. The Ki result in series [1] was “Not Active”; in series [2], “Not Active”; in series [3], “Not Active”; in series [4] it was “Not Active”; in series [5] (read-out: Ki), 4.26 µM; in series [6], “Not Active”.
Regarding ZIRCONIUM(IV) CHLORIDE, the IC50 entry in series [1], in series [2], in series [3], in series [4], in series [5] and in series [6] was “Not Active” throughout. For the same compound, the inhibition constant (Ki) result in series [1], in series [2], in series [3], in series [4], in series [5] and in series [6] was “Not Active” each time.

The values are drawn from ChEMBL document CHEMBL1909046, “DrugMatrix in vitro pharmacology data”.
